Assay results from patent US20230137667A1, “METHODS AND COMPOSITIONS FOR TREATMENT OF CORONAVIRUS INFECTION” (priority 2020, published 2023).
Like-named read-outs stand apart in the source and are kept apart here.

Columns and labels:
caspases 3/7 [1] = format: cell-based, human
caspases 3/7 [2] = format: cell-based, human; remark: listed apart in the source
[3] = test system: primary human lung microvascular endothelial cells (MVE)
[4] = test system: primary human lung microvascular endothelial cells (MVE); remark: listed apart in the source
[5] = test system: primary human lung fibroblasts (FB)
MERS-CoV [6] = format: cell-based
MERS-CoV [7] = format: cell-based; remark: listed apart in the source
[8] = test system: primary human lung fibroblasts (FB); remark: listed apart in the source

| SMILES | caspase 3/7 activation above untreated infected cells (caspases 3/7 [1]) | caspase 3/7 activation above untreated infected cells (caspases 3/7 [2]) | cytotoxicity (CellTiter-Glo cell viability) [3] | caspase 3/7 activation (caspases 3/7 [1]) | caspase 3/7 activation (caspases 3/7 [2]) | cell viability [4] | cell viability [5] | MERS-CoV replication (nanoluciferase expression) (MERS-CoV [6]) | MERS-CoV replication (nanoluciferase expression) (MERS-CoV [7]) | cytotoxicity (CellTiter-Glo cell viability) [8] |
| --- | --- | --- | --- | --- | --- | --- | --- | --- | --- | --- |
| Cc1ccc2cc(-c3c(C)ccc(C(=O)c4c(-c5ccccc5)n(C)n(-c5ccccc5)c4=O)c3N)ccc2n1 [AMG PERK 44] | No significant dose responsive change in caspase 3/7 activation above untreated infected cells | No significant dose responsive change in caspase 3/7 activation above untreated infected cells | dose dependent increase in cytotoxicity | – | – | – | – | – | – | – |
| C[C@H](CCC(=O)O)C[C@H](C)C[C@H](C)C(=O)/C=C(\O)[C@H](C)C[C@H](C)C/C=C/[C@@H](C)[C@@H](O)[C@@H](C)[C@@H](O)C[C@@H]1CC[C@@](C)([C@H]2CC[C@@](C)([C@@H](C)O)O2)O1 [ionomycin] | – | – | – | did not induce caspase 3/7 activation | did not induce caspase 3/7 activation | diminished cell viability | diminished cell viability | – | – | – |
| CN[C@@H]1C[C@H]2O[C@@](C)([C@@H]1OC)n1c3ccccc3c3c4c(c5c6ccccc6n2c5c31)C(=O)NC4 [staurosporine] | – | – | – | significantly induced caspase 3/7 activation | significantly induced caspase 3/7 activation | diminished cell viability | diminished cell viability | – | – | – |
| O=C(COc1ccc(Cl)cc1)NC1CCC(NC(=O)COc2ccc(Cl)cc2)CC1 (stereo not drawn) [trans-ISRIB] | – | – | not cytotoxic at any dose tested | – | – | – | – | did not alter MERS-CoV replication in either infected MVE or FB | did not alter MERS-CoV replication in either infected MVE or FB | not cytotoxic at any dose tested |
